Laboratory results: publication PMC6842543, “Antiparasitic effect of synthetic aromathecins on Leishmania infantum” (BMC Veterinary Research, 2019)
In brackets after ≈: the same amount, converted by molar mass. Entries after “also recorded” stand apart in the source; their conditions may differ. Like-named read-outs stand apart in the source and are kept apart here.

Legend:
[1] = system: L. infantum promastigotes; assay: In vitro iRFP L. infantum promastigotes viability assay (infrared fluorescence); assay type: cell-based, Leishmania infantum; conditions: Leishmania infantum, 72 h, read-out: EC50 L. infantum promastigotes
Experimental: (§1) Two series of aromathecins (Table 1) have been tested against both stages of L. infantum, free-living promastigotes and intracellular amastigotes harbored in mouse splenic cells. Experiments were carried out using a genetically modified L. infantum strain that constitutively produces the iRFP protein. This makes it possible to evaluate the viability of parasites measuring the fluorescence emitted at 708 nm.
The antiparasitic activity of the compounds was assessed on the genetically modified iRFP L. infantum strain, which constitutively produces the infrared fluorescent protein (iRFP) when cells are viable. iRFP L. infantum was grown at 26 °C in M-199 medium (Gibco) supplemented with 25 mM HEPES pH 7.2, 0.1 mM adenine, 0.0005% (w/v) hemin, 2 μg/mL biopterin, 0.0001% (w/v) biotin, 10% (v/v) heat-inactivated fetal bovine serum (FBS) and an antibiotic cocktail comprising 50 U/mL penicillin and 50 μg/mL streptomycin.
(§2) The viability of cultured parasites in the presence of different concentrations of aromathecins was determined by measuring the reduction of infrared fluorescence emitted by free-living promastigotes/amastigotes with respect to negative controls of each form of the parasite treated with DMSO (up to 0.1% final concentration) as a vehicle. […] After 72 h incubation at 26 °C, the infrared fluorescence emitted at 708 nm by viable promastigotes/amastigotes was measured in an Odyssey (Li-Cor) infrared imaging system. Similarly, the cytotoxic effect (CC50) of aromathecins on uninfected splenic explants from BALB/c mice (cells that naturally harbor the amastigote stage) was measured by the Alamar Blue (Invitrogen) assay. The selectivity index (SI) was determined as the relationship between the CC50 value and the EC50 value for amastigotes. CC50 and EC50 were calculated by nonlinear analysis using the Sigma-Plot 10.0 statistical package. The aromathecins were dissolved in DMSO and stored at − 20 °C before their use as fresh aliquots.

[2] = system: L. infantum amastigotes; assay: Ex vivo murine splenic explant culture with intramacrophagic iRFP L. infantum amastigotes; assay type: cell-based, Leishmania infantum; conditions: for SI: Selectivity Index = CC50/EC50 (amastigotes): CC50 murine splenocytes / EC50 amastigotes; for EC50: Leishmania infantum, 72 h, read-out: EC50 L. infantum amastigotes
Experimental: as §1
Primary splenocyte cultures containing intramacrophagic amastigotes were obtained from dissected spleens of female BALB/c mice infected intraperitoneally with 1.5 × 10^9 metacyclic iRFP L. infantum promastigotes, 5 weeks before their sacrifice. Mice were obtained commercially (Janvier-Labs). Animals were housed in specific-pathogen free facilities and they were euthanized by cervical dislocation without anesthesia. These protocols were approved by the Animal Care Committee of University of Leon (project license SAF2017–83575-R), which complies with European Union Legislation (2010/63/UE) and Spanish Act (RD 53/2013).
(§3) The spleens were washed with cold phosphate-buffered saline (PBS), cut in small pieces and incubated for 20 min with 5 mL of 2 mg/mL collagenase D (Sigma) prepared in buffer (10 mM HEPES, pH 7.4, 150 mM NaCl, 5 mM KCl, 1 mM MgCl2 and 1.8 mM CaCl2). After that, the cell suspension obtained was passed through a 100 μm cell strainer, harvested by centrifugation (500×g for 7 min at 4 °C), washed twice with PBS, and cultured at 37 °C under 5% CO2 atmosphere in RPMI medium (Gibco) supplemented with 10 mM HEPES, 1 mM sodium pyruvate, 1xRPMI 1640 vitamin mix, 10% (v/v) FBS, 50 U/mL penicillin and 50 μg/mL streptomycin (Calvo-Álvarez et al., 2015).
as §2

[3] = Cytotoxicity on uninfected splenic explants (Alamar Blue); assay type: cell-based, BALB/c mice; conditions: mouse, uninfected splenic explants from BALB/c mice, Alamar Blue
Experimental: as §3, §2

[4] = system: recombinant LTopIB; assay: TopIB relaxation activity assay (supercoiled pBluescript-SK plasmid, agarose gel with ethidium bromide); assay type: biochemical, Leishmania; conditions: for Inhibition of LTopIB relaxation activity (in words): 0.01, 0.1, 1, 10 and 100 μM, 26 °C, 4 min; for Concentration at which partial inhibition of LTopIB started: not concentration dependent; for Total inhibition of LTopIB: only at high concentration (100 μM)
Experimental: In addition to the antileishmanial effect of these compounds, their activity as LTopIB inhibitors was analyzed in vitro (Fig. 2). Recombinant LTopIB was produced in a TopIB-defective yeast platform, and purified by standard chromatographic protocols. The effect of aromathecins (comp. 1 to 10) on LTopIB was addressed by measuring the relaxation of negatively supercoiled pBluescript-SK DNA plasmid in the presence of different concentrations of these molecules. In order to separate the nicked DNA generated by the cleavage-complex stabilization from the relaxed topoisomers, gels were run in the presence of ethidium bromide.
Fig. 2 Inhibition of LTopIB relaxation activity of negatively supercoiled pBluescript SK (−) plasmid (pSK) mediated by different aromathecins concentrations (0.01, 0.1, 1, 10 and 100 μM). The control reaction contained 1% DMSO. DNA was separated by gel electrophoresis in 1% agarose containing 0.1 μg/mL ethidium bromide. Gels were visualized with UV illumination. Key: R = relaxed DNA; Sc = supercoiled DNA; N = nicked DNA
Expression and purification of LTopIB were carried out according to a previously standardized protocol. LTopIB was purified from yeast strain EKY3 deficient in TopIB activity [MATα, ura3–52, his3Δ200, leu2Δ1, trp1Δ63, top1Δ:TRP1], transfected with the pESC-URA plasmid containing both subunits of LTopIB. Cells were grown in yeast synthetic drop-out medium without uracil (Sigma) supplemented with 2% raffinose (w/v) to OD600: 0.8–1 and induced for 10 h with 2% galactose (w/v). Yeast were harvested, washed with cold TEEG buffer (50 mM Tris-HCl pH 7.4, 1 mM EDTA, 1 mM EGTA, 10% glycerol) and resuspended to their lysis in 15 mL of 1 x TEEG buffer supplemented with 0.2 M KCl and a protease inhibitors cocktail (Thermo Scientific). Protein extract obtained was loaded on a 5 mL P-11 phosphocellulose column (Whatman International Ltd. England). LTopIB protein was eluted at 4 °C with a discontinuous gradient of KCl (0.2, 0.4, 0.6 M) in TEEG buffer.
The effect of aromathecins on recombinant LTopIB was determined by measuring the relaxation of negatively supercoiled pBluescript-SK DNA plasmid (pSK). Thus, 20 μL of reaction mixture (0.5 μg pSK; 10 mM Tris-HCl pH 7.5; 5 mM MgCl2; 0.1 mM EDTA; 15 μg/mL bovine serum albumin) along with 0.01, 0.1, 1, 10 and 100 μM of the different aromathecins were incubated at 26 °C during 4 min. The control reaction performed without aromathecins contained 1% DMSO. Reactions were stopped by adding 1% SDS (final concentration), digested with 1 mg/mL proteinase K at 37 °C during 1 h and extracted with phenol/chloroform. DNA was separated by gel electrophoresis in 1% agarose containing 0.1 μg/mL ethidium bromide in 0.1 M Tris borate EDTA buffer (pH 8.0) at 4 V/cm for 16 h. Gels were visualized with UV illumination.

[5] = system: CPT-20 (CPT-resistant L. infantum promastigotes); assay: Susceptibility of CPT-resistant strain CPT-20 promastigotes; assay type: cell-based, Leishmania infantum; conditions: read-out: EC50 in CPT-20 strain
Experimental: (§4) In order to evaluate if aromathecins would share the transporter involved in CPT resistance, one of the major problems related to the loss of effectiveness of CPT derivatives, a CPT-resistant strain was generated. The CPT-resistant strain used was generated by the exposure of L. infantum promastigotes to increasing concentrations of CPT, from 0.1 to 20 μM (CPT-20, from now on). […] Therefore, it is very likely that the resistance mechanism of CPT-20 is related to the overexpression of the ABCG6 transporter previously described as the drug-efflux pump involved in the CPT resistance mechanism. The CPT-20 strain was susceptible to the aromathecins assayed in this work (2, 5 and 10 were not assayed due to their poor effect against iRFP L. infantum promastigotes), showing very similar EC50 values to those obtained with iRFP L. infantum.
(§5) The CPT resistant strain used in this work was generated exposing L. infantum promastigotes to increased concentrations of CPT, from 0.1 to the solubility limit of the compound, 20 μM in the case of CPT. Parasites were grown at 26 °C in M199 medium supplemented as described previously, each culture being inoculated at an initial density of 10^6 cells/mL. The promastigotes cultured in liquid medium in the presence of 20 μM CPT, were plated on semisolid M199 medium containing 20 μM CTP in order to select a single colony.

[6] = system: L. infantum WT strain; assay: Susceptibility of WT strain promastigotes; assay type: cell-based, Leishmania infantum
Experimental: as §4

[7] = Solubility limit in culture medium; assay type: physicochemical; conditions: M199 culture medium
Experimental: as §5

[8] = iRFP-L. infantum promastigotes, 26 °C, fluorescence at 708 nm, average of three experiments by duplicate
[9] = splenic-infecting amastigotes, ex vivo explants from infected BALB/c mice
[10] = uninfected splenic explants (murine splenocytes)
[11] = read-out: CC50 Murine Splenocytes

Structure (SMILES) | EC50 [1, 8] | SI: Selectivity Index = CC50/EC50 (amastigotes) [2] | EC50 [2, 9] | CC50 at 72 h [3, 10] | Inhibition of LTopIB relaxation activity (in words) [4] | Concentration at which partial inhibition of LTopIB started [4] | further results
O=c1c2ccccc2cc2n1Cc1c-2nc2cccc(Cl)c2c1CNCCCn1ccnc1 [Compound 6] | 3330 ± 170 nM | 3.7 | 190 ± 30 nM | 700 ± 120 nM | did not have any inhibitory effect; also recorded: do not have LTopIB inhibitory activity | – | –
CC[C@@]1(O)C(=O)OCc2c1cc1n(c2=O)Cc2cc3c(CN(C)C)c(O)ccc3nc2-1 [topotecan] | – | – | – | – | – | – | EC50 ([5]; Leishmania infantum): > 100000 nM; EC50 ([6]; Leishmania infantum): 9540 ± 220 nM
NCCCCNCc1c2c(nc3ccccc13)-c1cc3ccccc3c(=O)n1C2 [Compound 3] | 3710 ± 450 nM | 2.5 | 1010 ± 130 nM | 2530 ± 140 nM | partial inhibition | 0.01 µM | Total inhibition of LTopIB [4]: total inhibition
CC[C@@]1(O)C(=O)OCc2c1cc1n(c2=O)Cc2cc3ccccc3nc2-1 [CPT, Camptothecin, reference compound] | – | – | – | – | – | – | EC50 [1]: 1120 ± 130 nM; EC50 [2]: 30 ± 10 nM; CC50 at 72 h [3, 11]: 620 ± 10 nM; solubility [7]: 20 µM (≈ 6.97 µg/mL)
CN(C)CCCc1c2c(nc3cc4c(cc13)OCCO4)-c1cc3ccccc3c(=O)n1C2 [Compound 9] | 3030 ± 450 nM | 8.0 | 370 ± 1060 nM | 3040 ± 1060 nM | only happed at a high concentration | – | Total inhibition of LTopIB [4]: total inhibition
O=c1c2ccccc2cc2n1Cc1c-2nc2ccccc2c1CCCNCCO [Compound 4] | 4990 ± 310 nM | 5.0 | 990 ± 1170 nM | 4960 ± 520 nM | partial inhibition | 0.01 µM | –
NCCNCc1c2c(nc3ccccc13)-c1cc3ccccc3c(=O)n1C2 [Compound 2] | > 20000 nM | – | 810 ± 50 nM | 2170 ± 270 nM | – | – | –
CN(C)CCCc1c2c(nc3ccccc13)-c1cc3ccccc3c(=O)n1C2 [Compound 1] | 6270 ± 700 nM | 9.8 | 450 ± 140 nM | 4410 ± 1070 nM | partial inhibition; also recorded: inhibit the enzyme at very low concentrations | 0.01 µM | –
CN(C)Cc1c2c(nc3cc4c(cc13)OCCO4)-c1cc3ccccc3c(=O)n1C2 [Compound 8] | 5090 ± 820 nM | 10.6 | 350 ± 30 nM | 3720 ± 760 nM | – | – | Nicked DNA from cleavage-complex stabilization ([4]; gel run in the presence of ethidium bromide): weak band of nicked DNA; also recorded: nick DNA from cleavage-complex stabilization
O=c1c2ccccc2cc2n1Cc1c-2nc2cc3c(cc2c1Cn1ccnc1)OCCO3 [Compound 10] | > 20000 nM | 9.3 | 580 ± 50 nM | 5560 ± 1130 nM | did not have any inhibitory effect; also recorded: do not have LTopIB inhibitory activity | – | –
NCCCc1c2c(nc3cc4c(cc13)OCCO4)-c1cc3ccccc3c(=O)n1C2 [Compound 7] | 13300 ± 2740 nM | – | 1110 ± 80 nM | – | partial inhibition | 0.01 µM | CC50 at 72 h [3, 11]: 310 ± 40 nM; Total inhibition of LTopIB [4]: total inhibition
CCc1c2c(nc3ccc(O)cc13)-c1cc3c(c(=O)n1C2)COC(=O)[C@]3(O)CC [SN38] | – | – | – | – | – | – | EC50 ([5]; CPT-resistant L. infantum promastigotes selected up to 20 μM CPT): 40980 ± 300 nM; EC50 [6]: 4730 ± 140 nM
O=c1c2ccccc2cc2n1Cc1c-2nc2ccccc2c1CCCn1ccnc1 [Compound 5] | > 20000 nM | 5.2 | 440 ± 30 nM | – | partial inhibition | 0.01 µM | CC50 at 72 h [3, 11]: 2310 ± 720 nM
